Molecular target: T1, Met kinase (Homo sapiens, UniProt P08581)
T1 construct: 6His (N); purchased Upstate 14-526; host or cells: Sf21 insect cells (S. frugiperda), baculovirus
Assay: Met kinase inhibition (enzyme assay), flashplate method
Type: biochemical
Conditions: 33P-ATP, substrate pAGLT, 3 hrs at room temperature
Text: According to the manufacturer's data (Met, active, upstate, catalogue No. 14-526), Met kinase is expressed for the purposes of protein production in insect cells (Sf21; S. frugiperda) and subsequent affinity-chromatographic purification as “N-terminal 6His-tagged” recombinant human protein in a baculovirus expression vector.
Flashplate Method (Met Kinase)
The test plates used are 96-well Flashplate^R microtitre plates from Perkin Elmer (Cat. No. SMP200). The components of the kinase reaction described below are pipetted into the assay plate. The Met kinase and the substrate poly Ala-Glu-Lys-Tyr, (pAGLT, 6:2:5:1), are incubated for 3 hrs at room temperature with radioactively labelled ^33P-ATP in the presence and absence of test substances in a total volume of 100 μl. The reaction is terminated using 150 μl of a 60 mM EDTA solution. After incubation for a further 30 min at room temperature, the supernatants are filtered off with suction, and the wells are washed three times with 200 μl of 0.9% NaCl solution each time. The measurement of the bound radioactivity is carried out by means of a scintillation measuring instrument (Topcount NXT, Perkin-Elmer).
The full value used is the inhibitor-free kinase reaction. This should be approximately in the range 6000-9000 cpm. The pharmacological zero value used is staurosporin in a final concentration of 0.1 mM. The inhibitory values (IC50) are determined using the RS1_MTS program.
Kinase reaction conditions per well: • 30 μl of assay buffer • 10 μl of substance to be tested in assay buffer with 10% of DMSO • 10 μl of ATP (final concentration 1 μM cold, 0.35 μCi of ^33P-ATP) • 50 μl of Met kinase/substrate mixture in assay buffer; • (10 ng of enzyme/well, 50 ng of pAGLT/well)
Solutions used: • Assay buffer: • 50 mM HEPES • 3 mM magnesium chloride • 3 μM sodium orthovanadate • 3 mM manganese(II) chloride • 1 mM dithiothreitol (DTT) • pH=7.5 (to be set using sodium hydroxide) • Stop solution: • 60 mM Titriplex III (EDTA) • ^33P-ATP: Perkin-Elmer; • Met kinase: Upstate, Cat. No. 14-526, Stock 1 μg/10 μl; spec. activity 954 U/mg; • Poly-Ala-Glu-Lys-Tyr, 6:2:5:1: Sigma Cat. No. P1152 In-vivo Tests (FIG. 1/1)

T1 sequence (P08581 25-1390): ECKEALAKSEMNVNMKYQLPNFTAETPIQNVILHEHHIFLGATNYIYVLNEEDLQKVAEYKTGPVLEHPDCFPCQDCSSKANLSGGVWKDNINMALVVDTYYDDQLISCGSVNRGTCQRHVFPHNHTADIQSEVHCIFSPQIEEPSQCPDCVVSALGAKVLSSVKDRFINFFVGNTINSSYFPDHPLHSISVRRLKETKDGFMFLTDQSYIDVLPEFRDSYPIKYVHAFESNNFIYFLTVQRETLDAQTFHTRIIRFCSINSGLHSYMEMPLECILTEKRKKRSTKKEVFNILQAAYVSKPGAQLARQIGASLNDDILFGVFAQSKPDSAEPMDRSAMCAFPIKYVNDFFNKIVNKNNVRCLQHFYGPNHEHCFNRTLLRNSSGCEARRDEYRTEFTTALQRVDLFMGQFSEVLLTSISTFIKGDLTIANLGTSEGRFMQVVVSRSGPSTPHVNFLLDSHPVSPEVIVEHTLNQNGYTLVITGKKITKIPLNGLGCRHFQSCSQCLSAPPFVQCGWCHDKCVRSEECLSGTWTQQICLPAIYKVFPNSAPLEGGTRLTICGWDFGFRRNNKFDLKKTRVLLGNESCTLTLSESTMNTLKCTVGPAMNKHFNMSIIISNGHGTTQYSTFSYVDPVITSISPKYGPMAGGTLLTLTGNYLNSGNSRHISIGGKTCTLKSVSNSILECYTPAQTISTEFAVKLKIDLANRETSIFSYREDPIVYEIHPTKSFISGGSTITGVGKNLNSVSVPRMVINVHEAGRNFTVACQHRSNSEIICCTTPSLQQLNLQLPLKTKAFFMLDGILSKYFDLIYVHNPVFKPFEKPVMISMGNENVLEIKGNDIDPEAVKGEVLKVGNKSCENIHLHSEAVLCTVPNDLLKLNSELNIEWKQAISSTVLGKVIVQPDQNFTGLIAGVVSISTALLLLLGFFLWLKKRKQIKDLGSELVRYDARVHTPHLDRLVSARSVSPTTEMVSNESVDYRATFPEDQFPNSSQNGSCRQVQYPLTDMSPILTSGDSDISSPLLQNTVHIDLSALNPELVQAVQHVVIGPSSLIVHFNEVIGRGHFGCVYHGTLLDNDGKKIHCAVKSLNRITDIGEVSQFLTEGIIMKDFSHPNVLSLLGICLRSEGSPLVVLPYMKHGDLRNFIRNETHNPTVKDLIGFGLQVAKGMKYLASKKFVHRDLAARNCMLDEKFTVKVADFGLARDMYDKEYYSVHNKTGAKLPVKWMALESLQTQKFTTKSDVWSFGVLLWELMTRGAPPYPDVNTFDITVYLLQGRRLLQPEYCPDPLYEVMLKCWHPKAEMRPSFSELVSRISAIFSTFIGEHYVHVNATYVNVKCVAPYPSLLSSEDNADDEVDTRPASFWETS

SMILES | IC50
Cc1cnc(-c2cccc(CN3N=C(c4nccs4)CSC3=O)c2)nc1 [Compound A1, 3-[3-(5-methylpyrimidin-2-yl)benzyl]-5-thiazol-2-yl-3,6-dihydro-1,3,4-thiadiazin-2-one] | 10 to 1000 nM
CN(C)/C=N/c1cnc(-c2cccc(CN3N=C(c4nccs4)CSC3=O)c2)nc1 [Compound A2, N,N-Dimethyl-N′-{2-[3-(2-oxo-5-thiazol-2-yl-6H-1,3,4-thiadiazin-3-ylmethyl)phenyl]pyrimidin-5-yl}formamidine] | 10 to 1000 nM
Cc1nc(-c2cccc(CN3N=C(c4nccs4)CSC3=O)c2)no1 [Compound A3, 3-[3-(5-Methyl-1,2,4-oxadiazol-3-yl)benzyl]-5-thiazol-2-yl-3,6-dihydro-1,3,4-thiadiazin-2-one] | 1000 to 10000 nM
Nc1cnc(-c2cccc(CN3N=C(c4cc(F)cc(F)c4)CSC3=O)c2)nc1 [Compound A4, 3-[3-(5-aminopyrimidin-2-yl)benzyl]-5-(3,5-difluorophenyl)-3,6-dihydro-1,3,4-thiadiazin-2-one] | 10 to 1000 nM
COc1ccc(C2=NN(Cc3cccc(-c4ncc(N)cn4)c3)C(=O)SC2)cc1OC [Compound A5, 3-[3-(5-Aminopyrimidin-2-yl)benzyl]-5-(3,4-dimethoxyphenyl)-3,6-dihydro-1,3,4-thiadiazin-2-one] | 10 to 1000 nM
N#Cc1ccc(C2=NN(Cc3cccc(-c4ncc(N)cn4)c3)C(=O)SC2)cc1 [Compound A6, 4-{3-[3-(5-Aminopyrimidin-2-yl)benzyl]-2-oxo-3,6-dihydro-2H-1,3,4-thiadiazin-5-yl}benzonitrile] | 10 to 1000 nM
CN(C)CCCOc1cnc(-c2cccc(CN3N=C(c4nccs4)CSC3=O)c2)nc1 [Compound A7, 3-{3-[5-(3-Dimethylaminopropoxy)pyrimidin-2-yl]benzyl}-5-thiazol-2-yl-3,6-dihydro-1,3,4-thiadiazin-2-one] | 10 to 1000 nM
CN(C)CCCOc1cnc(-c2cccc(CN3N=C(c4cc(F)cc(F)c4)CSC3=O)c2)nc1 [Compound A8, 5-(3,5-Difluorophenyl)-3-{3-[5-(3-dimethylamino-propoxy)pyrimidin-2-yl]benzyl}-3,6-dihydro-1,3,4-thiadiazin-2-one] | 10 to 1000 nM
CN(C)CCCOc1cnc(-c2cccc(CN3N=C(c4ccc(C#N)cc4)CSC3=O)c2)nc1 [Compound A9, 4-(3-{3-[5-(3-Dimethylaminopropoxy)pyrimidin-2-yl]-benzyl}-2-oxo-3,6-dihydro-2H-1,3,4-thiadiazin-5-yl)-benzonitrile] | 10 to 1000 nM
Nc1cnc(-c2cccc(CN3N=C(c4nccs4)CSC3=O)c2)nc1 [Compound A10, 3-[3-(5-Aminopyrimidin-2-yl)benzyl]-5-thiazol-2-yl-3,6-dihydro-1,3,4-thiadiazin-2-one] | 10 to 1000 nM

— patent publication US8211886B2, “Thiadiazinone derivatives” (Merck Patent Gesellschaft mit beschrankter Haftung, priority 2007, dated 2012)
